Reference: publication PMC9186362, “Design and biological evaluation of substituted 5,7-dihydro-6H-indolo[2,3-c]quinolin-6-one as novel selective Haspin inhibitors” (Journal of Enzyme Inhibition and Medicinal Chemistry, 2022)

Tests used:
Experiment in all cases: SelectScreen ZLYTE
Assay type in all cases: biochemical
FGFR3 = molecular target: T1, FGFR3 (Homo sapiens, UniProt P22607); conditions: ATP Km, read-out: Percentage of inhibition
T1 construct: purchased Life Technologies
Protocol: (§1) We further evaluated the selectivity profile of compound 55 on a larger panel of kinases (SelectScreen Whole Panel, Life Technologies). The inhibition profile of 55, evaluated at 1 μM, is depicted on a dendrogram on Figure 3 where kinases inhibited by a minimum of 80% are shown. A full list of the kinases tested is shown on Table S1 in supplementary information.

MAPK7 (ERK5) = molecular target: T2, MAPK7 (ERK5) (Homo sapiens, UniProt Q13164); conditions: ATP Km, read-out: Percentage of inhibition
T2 construct: purchased Life Technologies (SelectScreen)
Protocol: as §1

FGFR2 N549H = molecular target: T3, FGFR2 N549H (Homo sapiens, UniProt P21802, N549H); conditions: ATP Km, read-out: Percentage of inhibition
T3 construct: purchased Life Technologies (SelectScreen service)
Protocol: as §1

STK22D (TSSK1) = molecular target: T4, STK22D (TSSK1) (Homo sapiens, UniProt Q9BXA7); conditions: ATP Km, read-out: Percentage of inhibition
T4 construct: purchased Life Technologies (SelectScreen Whole Panel service)
Protocol: as §1

CAMK2A (CaMKII alpha) = CAMK2A (CaMKII alpha) (Homo sapiens, UniProt Q9UQM7); conditions: ATP Km, read-out: Percentage of inhibition
Protocol: as §1

EGFR (ErbB1) T790M L858R = EGFR (ErbB1) T790M L858R (Homo sapiens, UniProt P00533, L858R/T790M); conditions: ATP Km, read-out: Percentage of inhibition
Protocol: as §1

CSNK1A1 (CK1 alpha 1) = molecular target: T5, CSNK1A1 (CK1 alpha 1) (Homo sapiens, UniProt P48729); conditions: ATP Km, read-out: Percentage of inhibition
T5 construct: purchased Life Technologies (SelectScreen Whole Panel)
Protocol: as §1

MAPK9 (JNK2) = molecular target: T6, MAPK9 (JNK2) (Homo sapiens, UniProt P45984); conditions: ATP 100 µM, read-out: Percentage of inhibition
T6 construct: purchased Life Technologies (SelectScreen service)
Protocol: as §1

KIT T670I = molecular target: T7, KIT T670I (Homo sapiens, UniProt P10721, T670I); conditions: ATP Km, read-out: Percentage of inhibition
T7 construct: purchased Life Technologies
Protocol: as §1

JAK1 = molecular target: T8, JAK1 (Homo sapiens, UniProt P23458); conditions: ATP Km, read-out: Percentage of inhibition
T8 construct: purchased Life Technologies (SelectScreen service)
Protocol: as §1

MAP2K2 (MEK2) = molecular target: T9, MAP2K2 (MEK2) (Homo sapiens, UniProt P36507); conditions: ATP 100 µM, read-out: Percentage of inhibition
T9 construct: purchased Life Technologies
Protocol: as §1

KIT V559D = molecular target: T10, KIT V559D (Homo sapiens, UniProt P10721, V559D); conditions: ATP Km, read-out: Percentage of inhibition
T10 construct: purchased Life Technologies
Protocol: as §1

ABL1 F317I = ABL1 F317I (Homo sapiens, UniProt P00519, F317I); conditions: ATP Km, read-out: Percentage of inhibition
Protocol: as §1

DYRK3 = molecular target: T11, DYRK3 (Homo sapiens, UniProt O43781); conditions: ATP Km, read-out: Percentage of inhibition
T11 construct: purchased Life Technologies (SelectScreen service)
Protocol: as §1

MET (cMet) = MET (cMet) (Homo sapiens, UniProt P08581); conditions: ATP Km, read-out: Percentage of inhibition
Protocol: as §1

AMPK (A1/B2/G2) = AMPK (A1/B2/G2) (Homo sapiens, UniProt Q13131); conditions: ATP Km, read-out: Percentage of inhibition
Protocol: as §1

EPHB3 = molecular target: T12, EPHB3 (Homo sapiens, UniProt P54753); conditions: ATP Km, read-out: Percentage of inhibition
T12 construct: purchased Life Technologies (SelectScreen Whole Panel)
Protocol: as §1

PRKX = PRKX (Homo sapiens, UniProt P51817); conditions: ATP Km, read-out: Percentage of inhibition
Protocol: as §1

FGR = molecular target: T13, FGR (Homo sapiens, UniProt P09769); conditions: ATP Km, read-out: Percentage of inhibition
T13 construct: purchased Life Technologies (SelectScreen service)
Protocol: as §1

PLK2 = molecular target: T14, PLK2 (Homo sapiens, UniProt Q9NYY3); conditions: ATP Km, read-out: Percentage of inhibition
T14 construct: purchased Life Technologies (SelectScreen service)
Protocol: as §1

CHEK1 (CHK1) = CHEK1 (CHK1) (Homo sapiens, UniProt O14757); conditions: ATP Km, read-out: Percentage of inhibition
Protocol: as §1

CDK1/cyclin B = molecular target: T15, CDK1/cyclin B (Homo sapiens, UniProt P06493); conditions: ATP Km, read-out: Percentage of inhibition
T15 construct: purchased Life Technologies
Protocol: as §1

FRK (PTK5) = molecular target: T16, FRK (PTK5) (Homo sapiens, UniProt P42685); conditions: ATP Km, read-out: Percentage of inhibition
T16 construct: purchased Life Technologies
Protocol: as §1

PAK1 = PAK1 (Homo sapiens, UniProt Q13153); conditions: ATP Km, read-out: Percentage of inhibition
Protocol: as §1

AXL = molecular target: T17, AXL (Homo sapiens, UniProt P30530); conditions: ATP Km, read-out: Percentage of inhibition
T17 construct: purchased Life Technologies
Protocol: as §1

PRKCB1 (PKC beta I) = molecular target: T18, PRKCB1 (PKC beta I) (Homo sapiens, UniProt P05771); conditions: ATP Km, read-out: Percentage of inhibition
T18 construct: purchased Life Technologies (SelectScreen)
Protocol: as §1

DCAMKL2 (DCK2) = DCAMKL2 (DCK2) (Homo sapiens, UniProt Q8N568); conditions: ATP Km, read-out: Percentage of inhibition
Protocol: as §1

PRKCI (PKC iota) = PRKCI (PKC iota) (Homo sapiens, UniProt P41743); conditions: ATP Km, read-out: Percentage of inhibition
Protocol: as §1

PAK2 (PAK65) = PAK2 (PAK65) (Homo sapiens, UniProt Q13177); conditions: ATP Km, read-out: Percentage of inhibition
Protocol: as §1

MAPK12 (p38 gamma) = MAPK12 (p38 gamma) (Homo sapiens, UniProt P53778); conditions: ATP Km, read-out: Percentage of inhibition
Protocol: as §1

BTK = molecular target: T19, BTK (Homo sapiens, UniProt Q06187); conditions: ATP Km, read-out: Percentage of inhibition
T19 construct: purchased Life Technologies (SelectScreen service)
Protocol: as §1

FGFR3 V555M = molecular target: T20, FGFR3 V555M (Homo sapiens, UniProt P22607, V555M); conditions: ATP Km, read-out: Percentage of inhibition
T20 construct: purchased Life Technologies (SelectScreen Whole Panel service)
Protocol: as §1

SBK1 = molecular target: T21, SBK1 (Homo sapiens, UniProt Q52WX2); conditions: ATP Km, read-out: Percentage of inhibition
T21 construct: purchased Life Technologies (SelectScreen Whole Panel)
Protocol: as §1

RPS6KA5 (MSK1) = molecular target: T22, RPS6KA5 (MSK1) (Homo sapiens, UniProt O75582); conditions: ATP Km, read-out: Percentage of inhibition
T22 construct: purchased Life Technologies
Protocol: as §1

EPHA5 = molecular target: T23, EPHA5 (Homo sapiens, UniProt P54756); conditions: ATP Km, read-out: Percentage of inhibition
T23 construct: purchased Life Technologies (SelectScreen Whole Panel service)
Protocol: as §1

JAK2 = molecular target: T24, JAK2 (Homo sapiens, UniProt O60674); conditions: ATP Km, read-out: Percentage of inhibition
T24 construct: purchased Life Technologies (SelectScreen Whole Panel)
Protocol: as §1

HIPK2 = molecular target: T25, HIPK2 (Homo sapiens, UniProt Q9H2X6); conditions: ATP Km, read-out: Percentage of inhibition
T25 construct: purchased Life Technologies (SelectScreen service)
Protocol: as §1

EGFR (ErbB1) L858R = molecular target: T26, EGFR (ErbB1) L858R (Homo sapiens, UniProt P00533, L858R); conditions: ATP Km, read-out: Percentage of inhibition
T26 construct: purchased Life Technologies (SelectScreen Whole Panel)
Protocol: as §1

Chain of MET (cMet) (P08581 25-1390): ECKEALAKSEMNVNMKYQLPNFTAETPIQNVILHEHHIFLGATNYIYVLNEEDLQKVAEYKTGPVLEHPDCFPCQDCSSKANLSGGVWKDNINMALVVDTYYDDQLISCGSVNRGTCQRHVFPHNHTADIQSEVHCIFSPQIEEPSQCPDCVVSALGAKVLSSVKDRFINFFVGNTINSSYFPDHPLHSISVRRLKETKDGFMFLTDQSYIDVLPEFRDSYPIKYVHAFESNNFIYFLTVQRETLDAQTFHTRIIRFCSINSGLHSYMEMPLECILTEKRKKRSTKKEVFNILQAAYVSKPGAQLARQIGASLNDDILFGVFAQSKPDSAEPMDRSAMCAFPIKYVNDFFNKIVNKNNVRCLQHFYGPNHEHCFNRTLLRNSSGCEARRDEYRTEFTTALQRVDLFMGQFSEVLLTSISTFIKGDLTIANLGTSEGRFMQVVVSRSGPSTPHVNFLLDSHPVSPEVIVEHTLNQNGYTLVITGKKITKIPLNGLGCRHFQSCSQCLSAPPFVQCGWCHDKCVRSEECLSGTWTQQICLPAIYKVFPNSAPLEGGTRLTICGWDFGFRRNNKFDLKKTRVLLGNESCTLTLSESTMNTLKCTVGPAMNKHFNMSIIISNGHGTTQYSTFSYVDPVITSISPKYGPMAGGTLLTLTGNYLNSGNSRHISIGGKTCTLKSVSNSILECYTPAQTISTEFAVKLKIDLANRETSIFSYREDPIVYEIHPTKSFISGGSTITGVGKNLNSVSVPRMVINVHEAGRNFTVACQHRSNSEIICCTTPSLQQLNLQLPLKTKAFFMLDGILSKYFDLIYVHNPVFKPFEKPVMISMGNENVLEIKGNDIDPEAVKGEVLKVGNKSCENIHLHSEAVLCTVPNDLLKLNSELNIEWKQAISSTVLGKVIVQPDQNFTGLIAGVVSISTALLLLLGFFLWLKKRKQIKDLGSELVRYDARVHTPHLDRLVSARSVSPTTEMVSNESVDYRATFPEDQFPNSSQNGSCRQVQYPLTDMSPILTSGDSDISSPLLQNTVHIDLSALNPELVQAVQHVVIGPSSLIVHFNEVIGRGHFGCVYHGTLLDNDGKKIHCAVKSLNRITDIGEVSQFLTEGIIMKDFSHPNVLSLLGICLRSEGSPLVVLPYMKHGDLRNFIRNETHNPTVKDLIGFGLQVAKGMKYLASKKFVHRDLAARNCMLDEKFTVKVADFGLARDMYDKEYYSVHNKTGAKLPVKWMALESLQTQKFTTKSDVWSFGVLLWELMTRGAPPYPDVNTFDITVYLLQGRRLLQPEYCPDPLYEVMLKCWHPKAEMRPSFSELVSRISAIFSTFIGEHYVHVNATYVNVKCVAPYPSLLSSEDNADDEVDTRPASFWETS
T21 sequence (Q52WX2 whole entry): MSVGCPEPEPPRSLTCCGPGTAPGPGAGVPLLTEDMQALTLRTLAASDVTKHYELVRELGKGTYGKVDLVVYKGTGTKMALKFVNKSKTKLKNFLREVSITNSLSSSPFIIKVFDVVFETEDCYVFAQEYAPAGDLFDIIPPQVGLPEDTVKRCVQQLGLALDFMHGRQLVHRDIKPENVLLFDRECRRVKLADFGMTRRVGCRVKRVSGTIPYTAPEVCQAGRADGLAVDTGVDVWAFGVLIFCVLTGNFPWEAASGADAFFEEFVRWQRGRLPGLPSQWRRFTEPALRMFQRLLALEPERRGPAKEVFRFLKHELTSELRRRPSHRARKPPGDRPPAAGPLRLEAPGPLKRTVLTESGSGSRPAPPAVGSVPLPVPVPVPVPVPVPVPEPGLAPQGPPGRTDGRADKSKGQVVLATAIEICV
Chain of EGFR (ErbB1) T790M L858R (P00533 25-1210 T790M/L858R): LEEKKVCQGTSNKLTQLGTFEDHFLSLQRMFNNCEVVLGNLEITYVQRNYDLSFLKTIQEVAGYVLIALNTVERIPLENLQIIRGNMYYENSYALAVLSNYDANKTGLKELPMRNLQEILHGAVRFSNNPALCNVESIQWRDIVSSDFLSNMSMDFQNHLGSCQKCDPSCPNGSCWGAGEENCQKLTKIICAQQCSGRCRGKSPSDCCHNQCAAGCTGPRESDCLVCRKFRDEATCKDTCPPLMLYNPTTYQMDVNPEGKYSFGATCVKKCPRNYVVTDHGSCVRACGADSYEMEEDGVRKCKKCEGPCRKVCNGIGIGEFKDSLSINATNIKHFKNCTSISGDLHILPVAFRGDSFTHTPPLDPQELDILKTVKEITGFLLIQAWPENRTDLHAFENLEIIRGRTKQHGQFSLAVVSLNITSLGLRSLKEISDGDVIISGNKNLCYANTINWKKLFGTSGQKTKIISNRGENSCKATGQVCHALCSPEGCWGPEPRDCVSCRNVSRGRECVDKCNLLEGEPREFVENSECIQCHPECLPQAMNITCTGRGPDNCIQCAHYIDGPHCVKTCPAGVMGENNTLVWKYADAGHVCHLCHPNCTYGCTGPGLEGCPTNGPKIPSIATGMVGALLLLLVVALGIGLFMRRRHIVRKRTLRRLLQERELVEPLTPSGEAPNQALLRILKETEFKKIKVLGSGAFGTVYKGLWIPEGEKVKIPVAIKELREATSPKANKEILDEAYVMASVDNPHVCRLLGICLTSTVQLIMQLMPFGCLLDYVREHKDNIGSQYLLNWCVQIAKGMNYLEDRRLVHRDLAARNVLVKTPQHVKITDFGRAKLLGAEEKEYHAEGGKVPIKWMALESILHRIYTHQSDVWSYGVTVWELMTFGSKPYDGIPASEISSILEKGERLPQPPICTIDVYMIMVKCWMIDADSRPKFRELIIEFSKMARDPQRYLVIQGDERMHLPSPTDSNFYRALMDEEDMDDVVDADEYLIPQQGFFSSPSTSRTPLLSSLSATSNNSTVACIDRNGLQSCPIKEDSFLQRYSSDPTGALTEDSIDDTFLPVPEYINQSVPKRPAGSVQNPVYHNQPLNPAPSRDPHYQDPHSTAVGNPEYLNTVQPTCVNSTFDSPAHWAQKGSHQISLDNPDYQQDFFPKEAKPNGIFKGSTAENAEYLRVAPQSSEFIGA
T13 sequence (P09769 whole entry): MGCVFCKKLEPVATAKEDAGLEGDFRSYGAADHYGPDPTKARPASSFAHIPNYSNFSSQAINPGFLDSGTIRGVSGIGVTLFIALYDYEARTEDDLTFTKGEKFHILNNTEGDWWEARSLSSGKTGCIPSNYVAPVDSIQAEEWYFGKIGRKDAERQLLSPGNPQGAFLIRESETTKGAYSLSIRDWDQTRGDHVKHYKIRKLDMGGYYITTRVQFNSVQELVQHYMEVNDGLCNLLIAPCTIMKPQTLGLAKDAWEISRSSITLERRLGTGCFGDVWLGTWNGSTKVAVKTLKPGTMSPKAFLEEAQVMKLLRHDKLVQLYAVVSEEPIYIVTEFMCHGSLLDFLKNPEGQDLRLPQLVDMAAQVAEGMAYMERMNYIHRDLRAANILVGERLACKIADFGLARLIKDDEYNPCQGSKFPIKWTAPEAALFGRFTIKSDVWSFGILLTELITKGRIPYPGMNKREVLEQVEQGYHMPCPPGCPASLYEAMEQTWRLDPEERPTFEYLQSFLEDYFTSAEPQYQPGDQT
Chain of PAK2 (PAK65) (Q13177 whole entry): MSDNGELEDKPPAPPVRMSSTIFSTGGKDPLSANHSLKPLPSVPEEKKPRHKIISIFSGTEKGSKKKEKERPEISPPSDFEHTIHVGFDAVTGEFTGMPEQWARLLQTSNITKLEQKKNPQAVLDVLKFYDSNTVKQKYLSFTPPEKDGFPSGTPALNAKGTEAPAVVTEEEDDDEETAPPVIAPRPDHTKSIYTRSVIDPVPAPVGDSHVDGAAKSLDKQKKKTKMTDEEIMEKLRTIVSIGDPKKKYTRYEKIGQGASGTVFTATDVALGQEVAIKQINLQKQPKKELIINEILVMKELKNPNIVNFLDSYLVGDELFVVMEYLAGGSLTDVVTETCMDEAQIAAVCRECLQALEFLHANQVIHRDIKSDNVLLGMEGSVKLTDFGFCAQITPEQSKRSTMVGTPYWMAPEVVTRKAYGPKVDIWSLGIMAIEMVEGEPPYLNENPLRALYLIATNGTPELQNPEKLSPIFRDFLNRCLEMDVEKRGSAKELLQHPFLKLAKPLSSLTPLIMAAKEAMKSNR
Chain of MAPK12 (p38 gamma) (P53778 whole entry): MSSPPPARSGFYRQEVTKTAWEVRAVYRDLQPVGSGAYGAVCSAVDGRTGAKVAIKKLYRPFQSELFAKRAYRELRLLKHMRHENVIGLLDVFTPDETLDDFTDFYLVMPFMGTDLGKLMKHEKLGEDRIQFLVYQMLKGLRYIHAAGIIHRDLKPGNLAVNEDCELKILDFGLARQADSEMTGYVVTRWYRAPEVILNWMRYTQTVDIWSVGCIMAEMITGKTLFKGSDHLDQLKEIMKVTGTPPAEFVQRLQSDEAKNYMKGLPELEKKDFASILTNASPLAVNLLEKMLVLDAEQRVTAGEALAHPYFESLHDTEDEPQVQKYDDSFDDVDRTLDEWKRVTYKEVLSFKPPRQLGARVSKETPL
Chain of CHEK1 (CHK1) (O14757 whole entry): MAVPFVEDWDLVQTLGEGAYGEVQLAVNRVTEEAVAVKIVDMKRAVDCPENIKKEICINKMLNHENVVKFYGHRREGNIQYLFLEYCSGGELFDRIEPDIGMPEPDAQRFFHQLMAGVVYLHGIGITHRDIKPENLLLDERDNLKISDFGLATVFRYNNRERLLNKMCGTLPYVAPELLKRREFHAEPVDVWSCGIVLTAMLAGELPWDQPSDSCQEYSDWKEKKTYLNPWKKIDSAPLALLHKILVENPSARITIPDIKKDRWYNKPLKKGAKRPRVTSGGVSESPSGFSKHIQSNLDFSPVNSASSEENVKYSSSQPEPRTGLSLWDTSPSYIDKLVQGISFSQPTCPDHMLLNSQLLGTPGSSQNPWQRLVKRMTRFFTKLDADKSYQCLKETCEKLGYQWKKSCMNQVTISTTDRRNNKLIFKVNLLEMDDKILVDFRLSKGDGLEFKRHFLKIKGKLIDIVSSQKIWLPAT

`COc1ccc2[nH]c3c(=O)[nH]c4ccc(O)cc4c3c2c1` [Compound 55, 2-Hydroxy-10-methoxy-5,7-dihydro-6H-indolo[2,3-c]quinolin-6-one] gave an inhibition at 1 µM (FGFR3) of 3%, an inhibition at 1 µM (MAPK7 (ERK5)) of 8% and an inhibition at 1 µM (FGFR2 N549H) of 24%. It also gave an inhibition at 1 µM (STK22D (TSSK1)) of 19%, an inhibition at 1 µM (CAMK2A (CaMKII alpha)) of 20% and an inhibition at 1 µM (EGFR (ErbB1) T790M L858R) of 20%. It also gave an inhibition at 1 µM (CSNK1A1 (CK1 alpha 1)) of 51%, an inhibition at 1 µM (MAPK9 (JNK2)) of 12% and an inhibition at 1 µM (KIT T670I) of 4%. The inhibition at 1 µM (JAK1) was 23%, the inhibition at 1 µM (MAP2K2 (MEK2)) was 87% and the inhibition at 1 µM (KIT V559D) was 37%. The inhibition at 1 µM (ABL1 F317I) was 14%, the inhibition at 1 µM (DYRK3) was 86% and the inhibition at 1 µM (MET (cMet)) was 7%. It also gave an inhibition at 1 µM (AMPK (A1/B2/G2)) of 67%, an inhibition at 1 µM (EPHB3) of -9% and an inhibition at 1 µM (PRKX) of 7%. It also gave an inhibition at 1 µM (FGR) of 81%, an inhibition at 1 µM (PLK2) of 74% and an inhibition at 1 µM (CHEK1 (CHK1)) of 19%. The inhibition at 1 µM (CDK1/cyclin B) was 35%, the inhibition at 1 µM (FRK (PTK5)) was 33% and the inhibition at 1 µM (PAK1) was 6%. The inhibition at 1 µM (AXL) was 37%, the inhibition at 1 µM (PRKCB1 (PKC beta I)) was 8% and the inhibition at 1 µM (DCAMKL2 (DCK2)) was 6%. It also gave an inhibition at 1 µM (PRKCI (PKC iota)) of 6%, an inhibition at 1 µM (PAK2 (PAK65)) of 6% and an inhibition at 1 µM (MAPK12 (p38 gamma)) of 19%. The inhibition at 1 µM (BTK) was 24%, the inhibition at 1 µM (FGFR3 V555M) was 46% and the inhibition at 1 µM (SBK1) was 1%. It also gave an inhibition at 1 µM (RPS6KA5 (MSK1)) of 28%, an inhibition at 1 µM (EPHA5) of 18% and an inhibition at 1 µM (JAK2) of 54%. For the same compound, the inhibition at 1 µM (HIPK2) was 74% and the inhibition at 1 µM (EGFR (ErbB1) L858R) was -1%.
